# Reference: PMC9814250, “Single step syntheses of (1S)-aryl-tetrahydroisoquinolines by norcoclaurine synthases” (Communications Chemistry, 2020)
# How the values were obtained:
# [1] = molecular target: T1, RnCOMT (Rattus norvegicus, UniProt P22734); assay: HPLC, O-methylation to C6/C7-OMe-7b; settings: SAM generated in situ (EcMAT, EcMTAN), Mg2+, pH 7.5, 37 °C, 24 h; not enantioselective
# T1 construct: gene Comt; recombinant in E. coli BL21(DE3), used as lysate
# T1 sequence (P22734 1-264): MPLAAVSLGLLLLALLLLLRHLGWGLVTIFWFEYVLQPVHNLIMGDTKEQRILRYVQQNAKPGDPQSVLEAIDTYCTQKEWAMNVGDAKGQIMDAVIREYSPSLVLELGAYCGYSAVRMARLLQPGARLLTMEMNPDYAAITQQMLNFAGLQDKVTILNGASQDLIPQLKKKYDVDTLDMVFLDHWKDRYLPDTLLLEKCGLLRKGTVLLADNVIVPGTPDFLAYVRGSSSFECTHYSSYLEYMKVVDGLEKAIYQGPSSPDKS
# [2] = molecular target: T2, MxSafC (Myxococcus xanthus, UniProt Q50859); assay: HPLC, O-methylation to C6-OMe-7b; format: biochemical; settings: SAM generated in situ (EcMAT, EcMTAN), Mg2+, pH 7.5, 37 °C, 24 h; selective for (S)
# T2 construct: gene safC; recombinant in E. coli BL21(DE3), His-trap purified
# [3] = molecular target: T1, RnCOMT; assay: HPLC, O-methylation to C6-OMe product; settings: SAM generated in situ (EcMAT, EcMTAN), Mg2+, pH 7.5, 37 °C, 24 h; not enantioselective
# [4] = molecular target: T2, MxSafC; assay: HPLC, O-methylation to C6-OMe-7a; format: biochemical; settings: SAM generated in situ (EcMAT, EcMTAN), Mg2+, pH 7.5, 37 °C, 24 h; selective for (S)
Compound,"HPLC, O-methylation to C6/C7-OMe-7b [1]","HPLC, O-methylation to C6-OMe-7b [2]","HPLC, O-methylation to C6-OMe product [3]","HPLC, O-methylation to C6-OMe-7a [4]"
"Oc1cc2c(cc1O)[C@H](c1ccccc1)NCC2 [5b, (S)-5b]",C6:C7-OMe-7b was observed by ^1H-NMR when 5b was used as the substrate,MxSafC was found to be selective towards both (S)-5a and (S)-5b,,
"Oc1cc2c(cc1O)[C@H](C1CCCCC1)NCC2 [5a, (S)-5a]",,,"using 5a as the substrate, gave remarkable regioselectivity",MxSafC was found to be selective towards both (S)-5a and (S)-5b
